Data on 46 compounds can be found in the RepoRT retention time repository (doi:10.1016/j.scitotenv.2015.08.078).

SMILES strings stand for the structures.

The data set in a line: RP, Waters ACQUITY UPLC BEH C18, 100 × 2.1 mm, 1.7 µm, 0.3 mL/min, estimated dead time 0.73 min; A: water + 0.1% formic acid, pH 3; B: methanol + 0.1% formic acid, pH 3; gradient (min/%B) 0/10 14/90 16/90 18/10. As to conditions: stereoisomer not certain.
As to `CCNc1nc(Cl)nc(NC(C)(C)C)n1` [Terbuthylazine], the LC retention time was 10.5 min. As to `CCNc1nc(NC(C)(C)C)nc(SC)n1` [Terbutryn], the LC retention time was 9.91 min. Turning to `Cc1ncc([N+](=O)[O-])n1CCCO` [Ternidazole], the LC retention time is 2.89 min.

On to `FC(F)C(F)(F)OCC(Cn1cncn1)c1ccc(Cl)cc1Cl` (stereo unspecified) [Tetraconazole], for which the LC retention time is 11.6 min. Next, `CN(C)C1C(=O)C(C(N)=O)=C(O)C2(O)C(=O)C3=C(O)c4c(O)cccc4C(C)(O)C3CC12` (stereo unspecified) [Tetracycline]: 4.37 min; `CC(C)=CC1C(C(=O)OCN2C(=O)C3=C(CCCC3)C2=O)C1(C)C` (stereo unspecified) [Tetramethrin]: 12.8 min; `N#CN=C1SCCN1Cc1ccc(Cl)nc1` [Thiacloprid]: 6.28 min. Next, `CN1COCN(Cc2cnc(Cl)s2)C1=N[N+](=O)[O-]` [Thiamethoxam]: 3.27 min.

Take `CS(=O)(=O)c1ccc(C(O)C(CO)NC(=O)C(Cl)Cl)cc1` (stereo unspecified) [Thiamphenicol]: the LC retention time is 3.6 min. As for `O=C(Nc1ccccc1)Nc1cnns1` [Thidiazuron], the figure is 7.36 min. For the compound `COC(=O)c1sccc1S(=O)(=O)NC(=O)Nc1nc(C)nc(OC)n1` [Thifensulfuron methyl], the LC retention time is 5.04 min.

For the compound `CCN(CC)C(=O)SCc1ccc(Cl)cc1` [Thiobencarb], the LC retention time was 12.9 min.

For the compound `COC(=O)NC(=S)Nc1ccccc1NC(=S)NC(=O)OC` [Thiophanate-methyl], the LC retention time was 7.2 min.

Consider `C=CC1(C)CC(OC(=O)CSCCN(CC)CC)C2(C)C(C)CCC3(CCC(=O)C32)C(C)C1O` (stereo unspecified) [Tiamulin], for which the LC retention time was 9.22 min. Take `Clc1ccccc1CN1CCc2sccc2C1` [Ticlopidine]: the LC retention time was 12.1 min.

As for `CCC1OC(=O)CC(O)C(C)C(OC2OC(C)C(O)C(N(C)C)C2O)C(CCN2CC(C)CC(C)C2)CC(C)C(=O)C=CC(C)=CC1COC1OC(C)C(O)C(OC)C1OC` (stereo unspecified) [Tilmicosin], the LC retention time was 8.78 min. As for `CCCCNC(=O)NS(=O)(=O)c1ccc(C)cc1` [Tolbutamide], the figure is 8.33 min. As for `COP(=S)(OC)Oc1c(Cl)cc(C)cc1Cl` [Tolclofos-methyl], the figure is 12.1 min. On to `Cc1c(Cl)cccc1Nc1ccccc1C(=O)O` [Tolfenamic acid], for which the LC retention time is 11 min. As for `Cc1ccc(N(SC(F)(Cl)Cl)S(=O)(=O)N(C)C)cc1` [Tolyfluanid], the figure is 12.4 min; as for `CC(C)N(C(=O)SCC(Cl)=C(Cl)Cl)C(C)C` [Tri-allate], 13.3 min; as for `CC(C)(C)C(=O)C(Oc1ccc(Cl)cc1)n1cncn1` (stereo unspecified) [Triadimefon], 10.6 min. As for `CC(C)(C)C(O)C(Oc1ccc(Cl)cc1)n1cncn1` (stereo unspecified) [Triadimenol], the figure is 11.3 min. As for `CC1(C)OC2CC3C4CCC5=CC(=O)C=CC5(C)C4(F)C(O)CC3(C)C2(C(=O)CO)O1` (stereo unspecified) [Triamcinolone acetonide], the figure is 9.42 min; as for `CC12C=CC(=O)C=C1CCC1C3CC(O)C(O)(C(=O)CO)C3(C)CC(O)C12F` (stereo unspecified) [Triamcinolone], 6.95 min. Consider `COc1nc(C)nc(NC(=O)NS(=O)(=O)c2ccccc2OCCCl)n1` [Triasulfuron], for which the LC retention time was 6.67 min. Consider `[O-][n+]1nc(-n2ccnc2)nc2ccc(Cl)cc21` [Triazoxide], for which the LC retention time was 8.54 min. As for `COC(=O)c1ccccc1S(=O)(=O)NC(=O)N(C)c1nc(C)nc(OC)n1` [Tribenuron methyl], the figure is 7.52 min.

Regarding `COP(=O)(OC)C(O)C(Cl)(Cl)Cl` (stereo unspecified) [Trichlorfon], the LC retention time was 4.7 min. As for `Cc1cccc2sc3nncn3c12` [Tricyclazole], the figure is 6.05 min; as for `CCCOCC(=Nc1ccc(Cl)cc1C(F)(F)F)n1ccnc1` [Triflumizole], 12.7 min; as for `O=C(NC(=O)c1ccccc1Cl)Nc1ccc(OC(F)(F)F)cc1` [Triflumuron], 12 min. As for `CN(C)CCCN1c2ccccc2Sc2ccc(C(F)(F)F)cc21` [Triflupromazine], the figure is 10.6 min; as for `COC(=O)c1cccc(C)c1S(=O)(=O)NC(=O)Nc1nc(OCC(F)(F)F)nc(N(C)C)n1` [Triflusulfuron-methyl], 9.27 min; as for `CCOC(=O)C1CC(=O)C(=C(O)C2CC2)C(=O)C1` (stereo unspecified) [Trinexapac-ethyl], 7.6 min.

As to `Cc1ccc(C(=CCN2CCCC2)c2ccccn2)cc1` [Triprolidine], the LC retention time is 7.64 min. Next, `CC1(C)CCC(=Cc2ccc(Cl)cc2)C1(O)Cn1cncn1` (stereo unspecified) [Triticonazole]: 11 min; `CC(C)(C)NCC(O)c1ccccc1Cl` (stereo unspecified) [Tulobuterol]: 5.6 min.

For `COc1ccc(C(CN(C)C)C2(O)CCCCC2)cc1` (stereo unspecified) [Venlafaxine], the LC retention time was 7.23 min.

As to `CCCSC(=O)N(CCC)CCC` [Vernolat], the LC retention time was 12.2 min. As for `COCC1OC(=O)c2coc3c2C1(C)C1=C(C3=O)C2CCC(=O)C2(C)CC1OC(C)=O` (stereo unspecified) [Wortmannin], the figure is 7.75 min. As for `Cc1cccc(C)c1NC1=NCCCS1` [Xylazine], the figure is 4.92 min; as for `CC1CCCC(=O)CCCC=Cc2cc(O)cc(O)c2C(=O)O1` (stereo unspecified) [Zearalenone], 10.5 min; as for `CC1CCCC(O)CCCCCc2cc(O)cc(O)c2C(=O)O1` (stereo unspecified) [Zeranol (Alfa Zearalanol. a-ZAL)], 10.7 min.

Turning to `CCCCCCCCC=CC1CCC(=O)O1` (stereo unspecified) [japonilure], the LC retention time was 9.82 min. As for `Clc1cccc(N2CCNCC2)c1` [mCCP], the figure is 5.23 min.
